Two molecules from US9278097B2, “Prophylaxis and/or treatment of portal hypertension” (Universitatsklinikum Freiburg, priority 2003, dated 2016) can be followed below.

Common to all, as to assay type: in vivo, human
In assay [1] the test system is volunteers. Briefly: Sonographic / Doppler sonographic measurement of blood flow through the liver and blood pressure before and 90 minutes after oral Sildenafil. Particulars: 100 mg oral, n = 5, baseline mean 0.83.
For assay [2], the system named is volunteers. Described as above. Particulars: 100 mg oral. The procedure: With ten volunteers, the base values of the blood flow through the liver were measured in the morning before breakfast by means of common sonographic or Doppler sonographic methods. Subsequently, 100 mg Sildenafil were administered orally for each test person. On the average, 90 minutes after administration of this drug, the measurements were repeated.

The subject of assay [3] is patients, who had a pathological collateral or detour circulation, as originally caused by liver cirrhosis. Briefly: Doppler sonography of flow in the porto-systemic detour circulation before and after oral Vardenafil. The settings on record: two patients, single oral administration of 10 mg. The procedure: Hereby, before and after a single oral administration of 10 mg Vardenafil, the flow in the porto-systemic detour circulation was measured by Doppler-sonography: once in a patient having V. coronaria ventriculi as well as oesophagus varices, and another time in a patient having re-opened V. umbilicalis.

Assay [4] deals with patient having liver cirrhosis due to a chronic Hepatitis C. The experiment in a line: Invasive measurement of wedged hepatic vein pressure (portal vein pressure) by balloon catheter. The settings on record: one patient, 25 minutes after 10 mg oral; 31 mm Hg prior to administration. The procedure: In a patient having liver cirrhosis due to a chronic Hepatitis C, the wedged hepatic vein pressure, which can be equated with the portal vein pressure, was measured invasively. For this, a balloon catheter was introduced through the Vena jugularis interna into a small hepatic vein under X-ray control. Then, the free hepatic vein pressure may be measured, when the tip of the catheter lies freely in the lumen of the small vein. When the balloon is dilated (the diameter of this small hepatic vein amounts to a few mm), a congestion pressure is built-up at the tip of the catheter, corresponding to the portal vein pressure. In the tested patient, the portal vein pressure prior to the oral administration of a medicament was at 31 mm Hg.

Assay [5] deals with patients having portal hypertension (origin: liver cirrhosis in the status of Child A). Briefly: Doppler sonography of liver haemodynamics before and 1 h after oral Vardenafil, patients. The settings on record: continuous measurement after 10 mg oral, FIG. 4. How it is done:
In a further study, 16 healthy volunteers and 15 patients having portal hypertension (origin: liver cirrhosis in the status of Child A) were subjected to the following treatment:
In both the volunteers and the patients with empty stomach (10 hours of food leave), firstly the pulse rate and blood pressure under lying condition and subsequently the parameters of liver haemodynamics were measured by Doppler sonography.
The portal vein pressure is derived from the values obtained from the application of the apparatus Elegra from Siemens having a 3.5 MHz sectorial scanner (K. Haag et al., Am. J. Roentgenol 1999; 172: 631-635). Each measurement was carried out three times in total. The mean value from all three measurements was used. The measurements were carried out in the resting expiratory position. When measuring the flows and the flow volumina, the sonic angle lied below 60°. The sectional plane was basically chosen such that the vessel will be illustrated in its longitudinal route.
Flow measurements in the Vena portae as well as in their intrahepatic main stems. The determination of the flow volume in the portal vein, the Vena lienalis and the Vena mesenterica was carried out by Doppler-sonography, as measured by the options of the apparatus and by calculation through the formula: flow=π·d^2/4·Vmax2·60, wherein d is indicated in cm and Vmax is indicated in cm/s. Vena Lienalis: […]

Consider `CCCc1nn(C)c2c(=O)[nH]c(-c3cc(S(=O)(=O)N4CCN(C)CC4)ccc3OCC)nc12` [Sildenafil, 1-{[3-(6,7-Dihydro-1-methyl-7-oxo-3-propyl-1H-pyrazolo-[4,3-d]pyrimidin-5-yl)-4-ethoxyphenyl]sulfonyl}-4-methyl-piperazine], for which, in the assay on volunteers [1], the “Portal vein flow, change by Sildenafil (absolute)” value is “+0.27 l/mm”. In the assay with volunteers [2] (90 minutes, n = 10), the “Diameter of V. lienalis, change by Sildenafil (in %)” value is “+13%”; the “Diameter of portal vein, change by Sildenafil (in %)” value is “+12.8%”; the “Diastolic blood pressure, change by Sildenafil (in %)” value is −9.5%; the “Resistivity Index of A. hepatica communis, change by Sildenafil (in %)” value is given as “+4.48%”. Moreover, in the assay on volunteers [2] (90 minutes, n = 10), the “Resistivity Index of Truncus coeliacus, change by Sildenafil (in %)” value is −1.5%; the “Vmax of V. lienalis, change by Sildenafil (in %)” value is reported as −2.3%; the “Vmax of portal vein, change by Sildenafil (in %)” value is listed as −5.3%. In addition, in the assay with volunteers [2] (90 minutes, n = 10, baseline mean 0.67), the “Resistivity Index of A. hepatica communis, change by Sildenafil (absolute)” value is recorded as “+0.03”. The “Resistivity Index of Truncus coeliacus, change by Sildenafil (absolute)” value in the assay on volunteers [2] (90 minutes, n = 10, baseline mean 0.75) is recorded as −0.115. Further, in the assay on volunteers [2] (90 minutes, n = 10, baseline mean 7.7), the “Diameter of V. lienalis, change by Sildenafil (absolute)” value worked out at 1.0 mm. In the assay on volunteers [2] (90 minutes, n = 10, baseline mean 11.7), the “Diameter of portal vein, change by Sildenafil (absolute)” value came out at 1.5 mm. In addition, in the assay on volunteers [2] (90 minutes, n = 10, baseline mean 20.14), the “Vmax of V. lienalis, change by Sildenafil (absolute)” value was -0.47 cm/s. In addition, in the assay with volunteers [2] (90 minutes, n = 10, baseline mean 30.5), the “Vmax of portal vein, change by Sildenafil (absolute)” value is -1.63 cm/s. Besides, in the assay on volunteers [2] (90 minutes, n = 10, baseline mean 80.5), the “Diastolic blood pressure, change by Sildenafil (absolute)” value is −7.64 mm Hg. The “Systolic blood pressure, change by Sildenafil (in %)” value in the assay with volunteers [2] (on average 90 minutes after administration, n = 10) is given as −10.0%. The “Systolic blood pressure, change by Sildenafil (absolute)” value with volunteers [2] (on average 90 minutes after administration, n = 10, baseline mean 122) is reported as −12.21 mm Hg.

As for `CCCc1nc(C)c2c(=O)[nH]c(-c3cc(S(=O)(=O)N4CCN(CC)CC4)ccc3OCC)nn12` [Vardenafil], the “Decrease of flow in the V. coronaria ventriculi or in the umbilical vein” value in assay [3] was “about 30%”. The “Portal vein pressure (wedged hepatic vein pressure)” value in assay [4] stood at 26 mm Hg. The “Time after which increase of flow velocity in the portal vein and portal vein flow is clearly detectable” value in assay [5] (individual patient (liver cirrhosis), similar in practically all other patients) is listed as 15 min. In addition, in assay [5] (individual patient), the “Time at which effect on portal vein flow is most pronounced” value fell in the range of 20 to 30 min.
